From patent US20120107836A1, “DEVELOPMENT OF FLUORESCENTLY P-LOOP LABELLED KINASES FOR SCREENING OF INHIBITORS” (priority 2009, published 2012)
Values belong to the molecule of their own block, whether it stands above or below them.

How the values were obtained:
p38α = target: T1, p38α (Homo sapiens, UniProt Q16539, C119S/C162S/F327L/Y35C); experiment: Endpoint fluorescence binding measurements with acrylodan-labelled p38α (glycine-rich loop / P-loop labelled, Y35C); details: fluorescence response of acrylodan-labelled p38α
T1 construct: His-tag (N, cleaved yes); made in house; host or cells: E. coli BL21(DE3)
T1 sequence (Q16539 whole entry Y35C/C119S/C162S/F327L): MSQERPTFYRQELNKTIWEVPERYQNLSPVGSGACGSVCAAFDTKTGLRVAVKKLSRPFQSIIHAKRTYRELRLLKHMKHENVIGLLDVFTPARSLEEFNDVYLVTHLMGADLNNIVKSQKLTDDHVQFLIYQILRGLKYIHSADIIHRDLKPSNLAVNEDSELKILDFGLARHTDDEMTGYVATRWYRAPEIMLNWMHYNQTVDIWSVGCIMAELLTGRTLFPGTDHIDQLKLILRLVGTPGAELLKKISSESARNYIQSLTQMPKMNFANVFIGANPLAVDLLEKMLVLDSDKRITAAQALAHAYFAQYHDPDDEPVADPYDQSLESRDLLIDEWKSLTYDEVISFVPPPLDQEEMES
Text: For acrylodan-labelled p38α, ratiometric fluorescence values (R=Iλ512/Iλ475) enabled reliable binding curves of detected compounds to be plotted, allowing for direct determination of the Kd of ligand binding. It should be noted that binding modes of detected molecules can initially be assessed in HTS formats by measuring plates from primary and/or secondary screens at different time points. Compounds that change the maximum ratiometric signal or Kd over time are likely to be Type II/III inhibitors. Alternatively, kinetics of the association (kon) and dissociation (koff) of selected compounds can be determined using cuvettes. To determine kon, a mini stir bar was placed in the bottom of each cuvette to ensure rapid mixing as inhibitor was delivered through the injection port located above the cuvette. […] Nearly instantaneous binding kinetics (<5 s) are characteristic of Type I inhibitors, while slower kinetics (>10 s) indicate the slower binding of Type II or Type III inhibitors to the DFG-out conformation. Following binding, koff was determined by adding a 10-fold excess of unlabelled kinase to shift the binding equilibrium away from the labelled kinase. Addition of excess unlabelled kinase causes the inhibitor to redistribute and dissociate from acrylodan-labelled p38α, resulting in a recovery of the fluorescence signal.

MKK7 = target: T2, MKK7 (Homo sapiens, UniProt O14733, C202S/C260S/C280S); experiment: Real-time and endpoint fluorescence measurements with glycine-rich loop acrylodan-labelled MKK7 kinase domain; assay type: binding
T2 sequence (O14733 101-408 C202S/C260S/C280S): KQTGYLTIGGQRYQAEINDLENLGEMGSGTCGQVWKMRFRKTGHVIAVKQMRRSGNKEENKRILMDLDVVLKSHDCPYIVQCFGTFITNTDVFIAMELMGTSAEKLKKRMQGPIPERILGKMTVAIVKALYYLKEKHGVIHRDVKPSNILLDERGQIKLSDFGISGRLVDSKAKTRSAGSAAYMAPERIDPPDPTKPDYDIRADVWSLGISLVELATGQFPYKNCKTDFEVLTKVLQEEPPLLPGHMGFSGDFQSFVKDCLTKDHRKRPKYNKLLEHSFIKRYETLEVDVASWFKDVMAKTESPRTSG
Procedure: FIG. 8. Real-time and endpoint fluorescence measurements of a Type II and Type I ligands using glycine-rich loop labelled MKK7. […] Real-time kinetic measurements and detection of binding and dissociation of K252a.
Therefore, the Kd of a Type I inhibitor (K252a) to P-loop labelled MKK7 was measured. […] FIG. 8C highlights the real-time kinetic measurements and detection of binding and dissociation of K252a.

- detection of ligand binding by the P-loop labelled p38α assay (p38α): detected
Structure (SMILES): NC(=O)c1c(OCc2c(F)cc(Br)cc2F)nsc1NC(=O)NCCCCN1CCCC1 [CP547632]

Structure (SMILES): COC(=O)[C@@]1(O)C[C@H]2O[C@]1(C)n1c3ccccc3c3c4c(c5c6ccccc6n2c5c31)C(=O)NC4 [K252a]
- Kd (MKK7): 38 nM
- kinetics of binding and dissociation (MKK7; real-time measurements, P-loop labelled MKK7): fast

- detection of ligand binding by P-loop labelled MKK7 (MKK7; negative controls, up to 10 μM): not detected up to 10 uM
Structure (SMILES): CNC(=O)c1cc(Oc2ccc(NC(=O)Nc3ccc(Cl)c(C(F)(F)F)c3)cc2)ccn1 [sorafenib]
